Results taken from patent US10287269B2, “Pyrazolyl pyrimidinone compounds as PDE2 inhibitors” (Merck Sharp & Dohme Corp., priority 2015, dated 2019).

Assays:
[1] = reported in Brandon et al. 2007; cited from earlier work
other PDE isoforms = settings: reported in Brandon et al. 2007; cited from earlier work
human PDE2A1 = target: T1, human PDE2A1 (Homo sapiens, UniProt O00408); experiment: PDE2 IMAP FP inhibition assay, human enzyme (PDE selectivity panel format); type: biochemical; settings: Lab A; read-out: Human PDE2 Ki (nM) Lab A
T1 construct: GST; purchased BPS Bioscience (San Diego, Calif.) 60020; host or cells: insect cells
T1 sequence (O00408 1-920 isoform O00408-2): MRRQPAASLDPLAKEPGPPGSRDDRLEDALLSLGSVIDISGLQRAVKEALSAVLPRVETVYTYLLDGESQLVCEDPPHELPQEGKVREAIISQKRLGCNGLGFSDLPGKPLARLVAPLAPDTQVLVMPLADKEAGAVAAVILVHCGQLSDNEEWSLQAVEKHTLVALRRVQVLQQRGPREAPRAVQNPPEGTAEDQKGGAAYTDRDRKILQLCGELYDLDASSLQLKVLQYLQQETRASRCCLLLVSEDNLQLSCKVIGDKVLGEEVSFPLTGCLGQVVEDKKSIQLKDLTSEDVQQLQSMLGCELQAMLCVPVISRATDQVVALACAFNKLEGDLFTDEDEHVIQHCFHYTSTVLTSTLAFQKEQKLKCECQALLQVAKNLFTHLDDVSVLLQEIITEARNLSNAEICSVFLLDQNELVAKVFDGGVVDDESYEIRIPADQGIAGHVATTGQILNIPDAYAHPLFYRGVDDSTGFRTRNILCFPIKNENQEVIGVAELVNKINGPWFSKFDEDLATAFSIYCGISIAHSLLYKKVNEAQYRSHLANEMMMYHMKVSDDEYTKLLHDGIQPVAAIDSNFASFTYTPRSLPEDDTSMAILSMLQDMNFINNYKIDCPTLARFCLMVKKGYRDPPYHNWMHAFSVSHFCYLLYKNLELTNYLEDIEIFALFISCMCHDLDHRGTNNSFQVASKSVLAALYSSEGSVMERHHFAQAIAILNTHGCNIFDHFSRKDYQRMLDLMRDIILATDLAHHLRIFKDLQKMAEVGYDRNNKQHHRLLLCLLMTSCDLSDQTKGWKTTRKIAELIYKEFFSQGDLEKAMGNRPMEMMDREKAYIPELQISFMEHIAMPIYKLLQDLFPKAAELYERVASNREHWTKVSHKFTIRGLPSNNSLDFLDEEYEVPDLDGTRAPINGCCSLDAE
Procedure: Selectivity for PDE2, as compared to other PDE families, was assessed using the IMAP® technology. Human PDE10A2 enzyme was prepared from cytosolic fractions of transiently transfected HEK cells. All other PDE's were GST Tag human enzyme expressed in insect cells and were obtained from BPS Bioscience (San Diego, Calif.): PDE1A (Cat#60010), human PDE2A1 (Cat#60020), PDE3A (Cat#60030), PDE4A1A (Cat#60040), PDE5A1 (Cat#60050), PDE6C (Cat#60060), PDE7A (Cat#60070), PDE8A1 (Cat#60080), PDE9A2 (Cat#60090), PDE11A4 (Cat#60110).
Assays for PDE 1 through 11 were performed in parallel at room temperature in 384-well microtiter plates with an incubation volume of 20.2 μL. Solutions of test compounds were prepared in DMSO and serially diluted with DMSO to yield 30 μL of each of ten solutions differing by 3-fold in concentration, at 32 serial dilutions per plate. […] A Labcyte POD 810 (Labcyte, Sunnyvale, Calif.) was used to dispense 200 nL from each well of the titration plate to make eleven copies of the assay plate for each titration, one copy for each PDE enzyme. A solution of each enzyme (dilution from aliquots, sufficient to produce 20% substrate conversion) and a separate solution of FAM-labeled cAMP or FAM-labeled cGMP from Molecular Devices (Sunnyvale, Calif., product # R7506 or cGMP#R7508), at a final concentration of 50 nM were made in the assay buffer (10 mM Tris HCl, pH 7.2, 10 mM MgCl2, 0.05% NaN3 0.01% Tween-20, and 1 mM DTT). Note that the substrate for PDE2 is 50 nM FAM cAMP containing 1000 nM of cGMP. The enzyme and the substrate were then added to the assay plates in two consecutive additions of 10 μL and then shaken to mix. The reaction was allowed to proceed at room temperature for 60 minutes. A binding solution was then made from the kit components, comprised of 80% Solution A, 20% Solution B and binding reagent at a volume of 1/600 the total binding solution. The enzymatic reaction was stopped by addition of 60 μL of the binding solution to each well of the assay plate. The plates were sealed and shaken for 10 seconds. The plates were incubated at room temperature for one hour, then the parallel and perpendicular fluorescence was measured using a Tecan Genios Pro plate reader (Tecan, Switzerland). The apparent inhibition constants for the compounds against all 11 PDE's was determined from the parallel and perpendicular fluorescent readings as described for PDE10 FP assay using the following apparent KM values for each enzyme and substrate combination: PDE1A (FAM cGMP) 70 nM, human PDE2A1 (FAM cAMP) 10,000 nM, PDE3A (FAM cAMP) 50 nM, PDE4A1A (FAM cAMP) 1500 nM, PDE5A1 (FAM cGMP) 400 nM, PDE6C (FAM cGMP) 700 nM, PDE7A (FAM cAMP) 150 nM, PDE8A1 (FAM cAMP) 50 nM, PDE9A2 (FAM cGMP) 60 nM, PDE10A2 (FAM cAMP) 150 nM, PDE11A4 (FAM cAMP) 1000 nM. The intrinsic PDE2 inhibitory activity of a compound which may be used in accordance with the present invention may be determined by these assays. […]

| Compound | brain penetration [1] | potency at other PDE isoforms (other PDE isoforms) | Ki (human PDE2A1) [nM] |
| --- | --- | --- | --- |
| COc1ccc(Cc2nn3c([C@@H](CCCc4ccccc4)[C@@H](C)O)nc(C)c3c(=O)[nH]2)cc1OC [Bay 60-7550] | limited brain penetration | significant potency | – |
| CCc1ccc(C(CO)n2cc(-c3cc(=O)[nH]c(C)n3)cn2)c(F)c1 (single isomer, unassigned) [Example 111, (R)- or (S)-6-(1-(1-(4-ethyl-2-fluorophenyl)-2-hydroxyethyl)-1H-pyrazol-4-yl)-2-methylpyrimidin-4(3H)-one] | – | – | 42.5 |
| Cc1nc(-c2cnn(C(CO)c3ccc(C(F)(F)F)cc3F)c2)cc(=O)[nH]1 (single isomer, unassigned) [Example 109, (R)- or (S)-6-(1-(1-(2-fluoro-4-(trifluoromethyl)phenyl)-2-hydroxyethyl)-1H-pyrazol-4-yl)-2-methylpyrimidin-4(3H)-one] | – | – | 27.5 |
| Cc1nc(-c2cn(C(C)c3ccc(C(F)(F)F)cc3F)nc2C)cc(=O)[nH]1 (single isomer, unassigned) [Example 70, (S)- or (R)-(6-(1-(1-(2-fluoro-4-(trifluoromethyl)phenyl)ethyl)-3-methyl-1H-pyrazol-4-yl)-2-methylpyrimidin-4(3H)-one] | – | – | 312 |
| Cc1nc(-c2cnn(C(C)c3ccc(CC(F)(F)F)cc3C)c2)cc(=O)[nH]1 (single isomer, unassigned) [Example 106, (S)- or (R)-2-methyl-6-(1-(1-(2-methyl-4-(2,2,2-trifluoroethyl)phenyl)ethyl)-1H-pyrazol-4-yl)pyrimidin-4(3H)-one] | – | – | 710 |
| Cc1nc(-n2cc(C(C)(O)c3ccc(C(F)(F)F)cc3Cl)cn2)cc(=O)[nH]1 (single isomer, unassigned) [Example 118, (S)- or (R)-6-(4-(1-(2-chloro-4-(trifluoromethyl)phenyl)-1-hydroxyethyl)-1H-pyrazol-1-yl)-2-methylpyrimidin-4(3H)-one] | – | – | 47.8 |
